Test results: ChEMBL document CHEMBL1201862, “PubChem BioAssay data set” (2004)
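Five compound concentrations were applied to cells in 96-well plates for 48 hours; endpoints were derived by simple linear interpolation of the resulting dose-response curve. Here, GI50 denotes the concentration required for 50% inhibition of growth.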 Active and inactive are the calls of the source. Cut-off read from the data, not from the text of the source: active = GI50 up to about 1.1 µM and inactive = higher.

Columns and labels:
Experiment in all cases: inhibition of tumour cell growth, NCI panel, 48 h
EKVX = test system: EKVX
SN12C = test system: SN12C
T47D = test system: T47D
HT-29 = test system: HT-29
Hs-578T = test system: Hs-578T
NCI/ADR-RES = test system: NCI/ADR-RES
SK-OV-3 = test system: SK-OV-3
IGROV-1 = test system: IGROV-1
UO-31 = test system: UO-31
NCI-H522 = test system: NCI-H522
U-251 = test system: U-251
MDA-MB-231 = test system: MDA-MB-231
HL-60 = test system: HL-60
NCI-H460 = test system: NCI-H460
HOP-92 = test system: HOP-92
SK-MEL-2 = test system: SK-MEL-2
TK-10 = test system: TK-10
NCI-H226 = test system: NCI-H226
RXF 393 = test system: RXF 393
A498 = test system: A498

Measured: GI50

O=C(CCN1CCOCC1)Nc1ccc2sc3ccccc3c(=O)c2n1
inactive: EKVX 58.2 µM | SN12C 35 µM | T47D 20.6 µM | HT-29 > 100 µM | Hs-578T 36.4 µM | NCI/ADR-RES 43.4 µM | SK-OV-3 47.6 µM | IGROV-1 30.1 µM | UO-31 25.8 µM | NCI-H522 13.2 µM | U-251 42.9 µM | MDA-MB-231 35.6 µM | HL-60 > 100 µM | NCI-H460 37.8 µM | HOP-92 45.3 µM | SK-MEL-2 64 µM | TK-10 37.4 µM

O=C(NI1OC(=O)c2ccccc21)c1ccc(Cl)cc1
inactive: EKVX > 100 µM | SN12C > 100 µM | NCI-H226 60.4 µM | T47D > 100 µM | HT-29 > 100 µM | NCI/ADR-RES > 100 µM | SK-OV-3 > 100 µM | IGROV-1 > 100 µM | UO-31 43.2 µM | NCI-H522 14.1 µM | RXF 393 > 100 µM | U-251 45.7 µM | MDA-MB-231 > 100 µM | HL-60 > 100 µM | A498 > 100 µM | NCI-H460 > 100 µM | HOP-92 > 100 µM | SK-MEL-2 > 100 µM | TK-10 > 100 µM

CC(=O)OCC(C)(COC(C)=O)N1C(=O)C2C3c4ccccc4C(c4ccccc43)C2C1=O (stereo not drawn)
inactive: EKVX > 100 µM | NCI-H226 > 100 µM | T47D > 100 µM | HT-29 > 100 µM | Hs-578T > 100 µM | SK-OV-3 > 100 µM | IGROV-1 > 100 µM | UO-31 > 100 µM | RXF 393 35.6 µM | U-251 > 100 µM | MDA-MB-231 > 100 µM | HL-60 > 100 µM | A498 > 100 µM | NCI-H460 > 100 µM | HOP-92 > 100 µM | TK-10 > 100 µM

CCOC(=O)c1nc2ccccc2nc1Nc1cc(OC)c(OC)c(OC)c1
inactive: EKVX > 100 µM | SN12C > 100 µM | T47D > 100 µM | HT-29 > 100 µM | Hs-578T 92.9 µM | NCI/ADR-RES > 100 µM | SK-OV-3 > 100 µM | IGROV-1 > 100 µM | UO-31 > 100 µM | NCI-H522 > 100 µM | U-251 > 100 µM | MDA-MB-231 > 100 µM | HL-60 > 100 µM | NCI-H460 > 100 µM | HOP-92 > 100 µM | SK-MEL-2 > 100 µM | TK-10 > 10 µM

O=C1CCC2(CC1)Cc1ccccc1C2O (stereo not drawn)
inactive: EKVX > 100 µM | SN12C > 100 µM | NCI-H226 > 100 µM | T47D > 100 µM | HT-29 > 100 µM | Hs-578T > 100 µM | NCI/ADR-RES > 100 µM | SK-OV-3 > 100 µM | IGROV-1 > 100 µM | UO-31 > 100 µM | NCI-H522 > 100 µM | U-251 > 100 µM | MDA-MB-231 > 100 µM | HL-60 > 100 µM | NCI-H460 > 100 µM | SK-MEL-2 > 100 µM | TK-10 > 100 µM

COc1ccc(CNc2nc3cc(C(F)(F)F)ccc3nc2-c2ccccc2)cc1OC
inactive: EKVX 18.7 µM | SN12C > 10 µM | T47D 24.3 µM | HT-29 21.1 µM | Hs-578T 25.2 µM | NCI/ADR-RES 54.5 µM | SK-OV-3 > 100 µM | IGROV-1 66.7 µM | UO-31 23.7 µM | NCI-H522 36.1 µM | RXF 393 22.8 µM | MDA-MB-231 53.8 µM | HL-60 34 µM | NCI-H460 19.5 µM | SK-MEL-2 68.9 µM | TK-10 53.2 µM

CCOc1cc(NC(C)=O)ccc1C(=O)NNS(=O)(=O)c1ccc(NC(C)=O)cc1
inactive: EKVX 56 µM | SN12C 46.5 µM | NCI-H226 25.2 µM | T47D > 100 µM | HT-29 47.8 µM | Hs-578T 41.7 µM | NCI/ADR-RES 69.8 µM | SK-OV-3 50.9 µM | IGROV-1 43.9 µM | UO-31 62.4 µM | NCI-H522 37.4 µM | RXF 393 76.7 µM | HL-60 22.8 µM | A498 51.8 µM | NCI-H460 39.6 µM | HOP-92 61.9 µM | SK-MEL-2 28.8 µM

Cc1ccc(C)n1-c1ccccc1C1SCCCS1
inactive: EKVX > 100 µM | SN12C > 100 µM | NCI-H226 > 100 µM | HT-29 53.3 µM | Hs-578T > 100 µM | NCI/ADR-RES > 100 µM | SK-OV-3 > 100 µM | IGROV-1 > 100 µM | UO-31 > 100 µM | NCI-H522 > 100 µM | RXF 393 > 100 µM | U-251 > 100 µM | MDA-MB-231 49.9 µM | HL-60 16.9 µM | A498 > 100 µM | NCI-H460 > 100 µM | HOP-92 > 100 µM | SK-MEL-2 > 100 µM | TK-10 > 100 µM

COc1ccc(N2C(=O)/C(=C/c3ccc(N(CCC#N)CCC#N)cc3)N=C2c2ccccc2)c(OC)c1
inactive: EKVX > 100 µM | SN12C > 100 µM | NCI-H226 27.4 µM | T47D 27.1 µM | HT-29 > 100 µM | Hs-578T 50.6 µM | NCI/ADR-RES 52.8 µM | SK-OV-3 > 100 µM | IGROV-1 > 100 µM | UO-31 > 100 µM | NCI-H522 22 µM | U-251 48.2 µM | MDA-MB-231 > 100 µM | HL-60 30.3 µM | NCI-H460 > 100 µM | HOP-92 31.1 µM | TK-10 > 100 µM

Cn1c2ccccc2c(=O)c2ccc(Cl)cc21
inactive: EKVX 1.38 µM | SN12C > 10 µM | T47D > 10 µM | HT-29 > 10 µM | SK-OV-3 6.71 µM | IGROV-1 > 10 µM | RXF 393 > 10 µM | HL-60 9.95 µM | HOP-92 > 10 µM | SK-MEL-2 > 10 µM | TK-10 7.5 µM

CC(C)[Si](Oc1cc2c3c(ccc2c(O)c1[C@@H](C)CO[Si](C)(C)C(C)(C)C)C(C)(C)CCC3)(C(C)C)C(C)C
inactive: EKVX > 100 µM | SN12C > 100 µM | NCI-H226 > 100 µM | HT-29 > 100 µM | Hs-578T > 100 µM | NCI/ADR-RES > 100 µM | SK-OV-3 > 100 µM | IGROV-1 87.5 µM | UO-31 > 100 µM | NCI-H522 39.5 µM | RXF 393 > 100 µM | U-251 > 100 µM | MDA-MB-231 > 100 µM | HL-60 17.6 µM | A498 > 100 µM | NCI-H460 78 µM | HOP-92 > 100 µM | SK-MEL-2 > 100 µM | TK-10 > 100 µM

N#CCCN(CCCN(C(=O)Nc1ccccc1)c1ccccc1)C(=O)Nc1ccccc1
inactive: EKVX > 100 µM | SN12C > 100 µM | NCI-H226 > 100 µM | T47D > 100 µM | HT-29 > 100 µM | NCI/ADR-RES > 100 µM | SK-OV-3 > 100 µM | IGROV-1 > 100 µM | UO-31 58.3 µM | NCI-H522 > 100 µM | RXF 393 46.5 µM | U-251 > 100 µM | MDA-MB-231 > 100 µM | HL-60 27.2 µM | NCI-H460 77.4 µM | HOP-92 71.1 µM | SK-MEL-2 > 100 µM | TK-10 > 100 µM
